Assay results published in patent publication US5428058A, “Phospholipase A2 inhibitors” (American Home Products Corporation, priority 1994, dated 1995).
Where “and” joins values, the source holds several entries; their conditions need not be identical. Identical values can stand only once.

What was measured:
[1] = test system: tetradecanoylphorbol acetate (TPA) induced ear edema; test: tetradecanoylphorbol acetate (TPA) induced ear edema in mice; assay type: in vivo, mouse (Webster); design: activity in TPA ear edema test: dose or concentration left out as unconfirmed; conditions: for Percent Inhibition TPA Ear Edema: 30 min after TPA, measured 4 hrs after TPA
Protocol: Representative compounds of this invention were evaluated in an in vivo standard pharmacological test procedure that measured the effect of the representative compounds on dermal inflammation, as measured by the prevention of tetradecanoylphorbol acetate (TPA) induced car edema in Webster mice. This test procedure was carried out as follows.
Mice were placed into plastic boxes in groups of six. Eight groups of mice received TPA topically on the right ear. TPA was dissolved in acetone at a concentration of 100 ug/ml. TPA was applied to the right ear by the means of an automatic pipette. Volumes of 10 ul were applied to the inner and outer surfaces of the ear. Each mouse received 2 ug/ear TPA. The left ear (control) received acetone delivered in the same manner. The compounds to be evaluated were given orally 30 min after treatment with TPA.
Measurements were taken with Oditest calipers, 0-10 mm with 0.01 graduations. The right and left cars were measured 4 hrs after TPA-induced inflammation.
The difference between right and left car thickness was calculated and the significance was determined by a one way analysis of variance with Dunnet's comparisons to control (P=0.05). Drug effects are expressed as a percent change from control values according to the following formula. [formula]

5-lipoxygenase = target: T1, 5-lipoxygenase (Mus musculus, UniProt P48999); test: 5-lipoxygenase inhibition (LTC4 production) in resident murine peritoneal macrophages; assay type: cell-based, mouse (Swiss Webster)
T1 construct: Resident peritoneal macrophages were collected from female Swiss Webster mice; endogenous in cells; host or cells: resident peritoneal macrophages of female Swiss Webster mice
T1 sequence (P48999 1-674): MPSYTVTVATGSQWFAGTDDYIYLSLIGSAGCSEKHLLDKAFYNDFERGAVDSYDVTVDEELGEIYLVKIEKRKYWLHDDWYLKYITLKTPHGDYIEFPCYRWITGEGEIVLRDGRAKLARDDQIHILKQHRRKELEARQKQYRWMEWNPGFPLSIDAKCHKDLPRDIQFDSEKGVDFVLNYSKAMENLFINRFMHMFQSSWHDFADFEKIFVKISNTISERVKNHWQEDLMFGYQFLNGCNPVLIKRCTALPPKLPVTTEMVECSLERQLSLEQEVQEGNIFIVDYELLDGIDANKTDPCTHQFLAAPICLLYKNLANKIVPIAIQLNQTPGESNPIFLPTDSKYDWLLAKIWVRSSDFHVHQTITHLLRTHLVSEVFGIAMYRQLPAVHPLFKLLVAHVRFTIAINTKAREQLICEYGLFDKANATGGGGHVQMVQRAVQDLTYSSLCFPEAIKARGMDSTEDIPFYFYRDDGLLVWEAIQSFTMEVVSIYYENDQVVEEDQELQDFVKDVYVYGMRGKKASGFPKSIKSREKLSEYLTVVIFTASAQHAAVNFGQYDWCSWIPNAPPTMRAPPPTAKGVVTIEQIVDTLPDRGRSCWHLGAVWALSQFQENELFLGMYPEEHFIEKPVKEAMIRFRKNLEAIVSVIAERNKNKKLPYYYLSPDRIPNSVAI
Protocol: (§1) The ability of the compounds of the invention to act as inhibitors of the enzymes 5-lipoxygenase and cyclooxygenase was evaluated in the resident murine peritoneal macrophage standard pharmacological test procedure. This test procedure was carried out as follows.
(§2) Resident peritoneal macrophages were collected from female Swiss Webster mice (49 days old, 20-25 gms, Buckshire) by lavaging with 7-8 ml Hanks Balanced Salt Solution (HBSS) without Ca^++ and Mg^++ (GIBCO). The lavage fluid from several mice was pooled and centrifuged at 4° C. for 10 minutes at 400 xg. The cell pellet was resuspended in Medium 199 (GIBCO) with HEPES buffer containing 100 μg/ml gentamicin. Two ml of the cell suspension (4×10^6 cells) were then plated on 35 mm culture dishes (Nunc).
A macrophage monolayer was established after a 1-1.5 hour incubation of the cells at 37° C. in an atmosphere of […] and 5% CO2. The monolayers were washed 2× with 2 ml HBDSS, containing Ca^++ and Mg^++ after which 2 ml Medium 199 supplemented with 10% freshly thawed heat-inactivated fetal bovine serum and 100 μg/ml gentamicin was added for an overnight incubation.
Residual serum and cellular debris were removed from the monolayers by washing 3× with 2 ml HBSS containing Ca^++ and Mg^++. Macrophages were preincubated for 5 minutes with 1 ml serum-free M199 containing 10 μl dimethyl sulfoxide (DMSO) vehicle or test compound prior to cell activation with zymosan ([…]) or arachidonic acid (AA) (2 μM). After 2 hours, the supernatants were removed and either assayed for LTC4 and PGE2 by radioimmunoassay (RIA) directly or stored at -20° C. In all cases, results are expressed as ng metabolite/4×10^6 cells.
Calculations: The raw data were converted to ng metabolite/4-10^6 cells using a standard curve. Results were then expressed as percent inhibition of zymosan induced, leukotriene or prostaglandin synthesis (control) using the following equation: [formula] REFERENCE COMPOUNDS: The compounds used are listed below.

cyclooxygenase = cyclooxygenase inhibition (PGE2 production) in resident murine peritoneal macrophages; assay type: cell-based, mouse (Swiss Webster); conditions: dose 0.5 μM; mouse macrophages, zymosan induced
Protocol: as §1, §2
A macrophage monolayer was established after a 1-1.5 hour incubation of the cells at 37° C. in an atmosphere of […] and 5% CO2. […]
Residual serum and cellular debris were removed from the monolayers by washing 3× with 2 ml HBSS containing Ca^++ and Mg^++. […] In all cases, results are expressed as ng metabolite/4×10^6 cells.
Calculations: The raw data were converted to ng metabolite/4-10^6 cells using a standard curve. Results were then expressed as percent inhibition of zymosan induced, leukotriene or prostaglandin synthesis (control) using the following equation: [formula] […]

[2] = dose 0.1 μM, mouse macrophages, zymosan induced
[3] = mouse macrophages, zymosan induced

| inhibition at 0.5 µM (5-lipoxygenase; [3]) [%] | Structure (SMILES) | PGE2 % Inhibition (cyclooxygenase) | Percent Inhibition TPA Ear Edema ([1]; 80 mg/kg p.o.) [%] | Percent Inhibition TPA Ear Edema ([1]; 160 mg/kg p.o.) [%] | further results |
| --- | --- | --- | --- | --- | --- |
|  | NC1=NN(c2cccc(C(F)(F)F)c2)CC1 [BW 755c, reference compound] |  |  |  | ED50 ([1]; Mus musculus, 4 h, oral, TPA-induced ear edema, mice): 88 mg/kg |
|  | COc1ccc2c(c1)c(CC(=O)O)c(C)n2C(=O)c1ccc(Cl)cc1 [Indomethacin, reference compound] |  |  |  | activity in TPA ear edema test [1]: inactive |
| 92 | O=C(CC[C@@H]1CC[C@H]2CCCC[C@@H]2C1)C1=C(O)CSC1=O (relative stereo) [Example 2, 3-[3-[(2α,4aα,8aβ)-Decahydro-naphthalene-2-yl]-propionyl]-4-hydroxy-2-(5H)thiophenone] | 80% and 85% | 21 | 66 | LTC4 % Inhibition (5-lipoxygenase; [2]): 37%; inhibition at 0.1 µM (5-lipoxygenase; [2]): 43% |
|  | CCCCCC#CCC#CCC#CCC#CCCCC(=O)O [ETYA, reference compound] |  |  |  | IC50 (5-lipoxygenase): 0.44 µM |
| 59 | O=C(CC[C@@H]1CC[C@H]2CCCC[C@@H]2C1)C1=C(O)COC1=O (relative stereo) [Example 1, 3-[3-[(2α,4aα,8aβ)-Decahydro-naphthalene-2-yl]-propionyl]-4-hydroxy-2-(5H) -furanone] | 54% | 19 | 49 |  |
